From US20160106711A1, “3-3-Di-Substituted-Oxindoles as Inhibitors of Translation Initiation” (President and Fellows of Harvard College, priority 2012, published 2016)

What was measured:
KLN = assay: Cell growth assay (sulforhodamine B), KLN cells; type: cell-based, mouse; conditions: Mus musculus, 120 h, 5 days, SRB
Description: […] Plates were then incubated with 0.4% SRB in 1% acetic acid for 1 h, washed with 1% acetic acid to remove the unbound dye, and air-dried. The bound dye was solubilized by addition of 10 mM Tris (pH 10), and the absorbance was determined in a Titertek Multiscan plate reader at 490 nm. The data calculations were carried out as described (the values for mean±SD of data from replicate wells are calculated): data are expressed in terms of % T/C [(OD of treated cells/OD of control cells)×100], as a measure of cell viability and survival in the presence of test materials. Calculations are also made for the concentration of test agents giving a T/C value of 50%, or 50% growth inhibition (IC50). With the SRB assay, a measure is made of the cell population density at time 0 (the time at which drugs are added) from two extra reference plates of inoculated cells fixed with TCA just prior to drug addition to the test plates. Thus, we have three measurements: control optical density (C), test optical density (T), and optical density at time zero (T0). The calculation is 100×[(T−T0)/(C−T0)]. If T is less than T0, cell killing has occurred and can be calculated from 100×[(T−T0)/T0]. Thus, for each drug-cell line combination, a dose-response curve is generated and three levels of effect are calculated.

[1] = test system: eIF2•GTP•Met-tRNAi ternary complex; assay: Ternary complex assay (ATF-4 assay), dual luciferase firefly/renilla ratio; type: cell-based, mouse; conditions: Mus musculus; for maximal fold induction at 80 µM / maximal fold induction at 20 µM / maximal fold induction at 10 µM: read-out: ATF-4 Xmax; for maximal fold induction at 40 µM: read-out: ATF-4 Xmax @ 40 μM
Text: For assay development, a bi-directional plasmid was designed in which a common promoter/enhancer complex drives the transcription of firefly luciferase (F-luc) ORF fused to the 5′ untranslated region (UTR) of ATF-4, and of the renilla luciferase (R-luc) ORF fused to a 90-nucleotide 5′ UTR derived from the plasmid (FIG. 6A). Because the tetracycline-regulated transactivator ((tTA), required for driving transcription from this vector) is not normally expressed in the mammalian cells, stable KLN cancer cells were constructed that expressed tTA (KLN-tTA).
The KLN-tTA colonies that drove expression of reporter genes from pBISA-DL plasmid were selected by transient transfection and dual luciferase assay. One of these KLN-tTA cell lines was transfected with the pBISA-DL^(ATF-4) expression vector, stable colonies were selected by dual luciferase assay and expanded.
Plasmids and Ternary Complex Assay
(ATF-4 Assay). Briefly, bi-directional mammalian expression vector pBI (Clontech, CA) was modified to expand the multiple cloning sites (MCSs) and designated thereafter as pBISA. This vector contains seven copies of the tetracycline-regulated transactivator response element (TRE), which together act as core promoter/enhancer. The TRE is flanked on both sides by minimal human cytomegalovirus (CMV) minimal promoters allowing bi-directional transcription and two MCSs. Firefly and renilla luciferases were subcloned into MCS-I and MCS-II, respectively. This plasmid, designated pBISA-DL, transcribes two mRNAs that contain the 90 nucleotide plasmid derived 5′UTR (same sequence in both mRNAs), and the ORF encoding either firefly or renilla luciferase followed by a polyadenylation sequence as described in Ziegeler, G.; Ming, J.; Koseki, J. C.; Sevinc, S.; Chen, T.; Ergun, S.; Qin, X.; Aktas, B. H. J. Biol. Chem. 2010, 285, 15408 hereby incorporated by reference. This plasmid was further modified by inserting the 5′UTR of ATF-4 into MCS-I in front of the firefly luciferase mRNA. Transcription from this direction generates an mRNA that contains the firefly luciferase ORF preceded by a 5′UTR composed of 90 nucleotides derived from the plasmid and 267 nucleotides derived from the 5′UTR of ATF-4 mRNA. Transcription from the other direction generates an mRNA that contains the renilla luciferase ORF proceeded only by the 90-nucleotide plasmid-derived sequence in the 5′UTR. This expression plasmid is called pBISA-DL(ATF-4). In the dual luciferase assay, cells expressing firefly and renilla luciferases were lysed and the extracts assayed with a Dual-Glo Luciferase assay kit, per manufacturer's instruction (Promega Inc., Madison, Wis.). The data calculations were carried out as the ratio of firefly to renilla luciferase signal as described in Chen, T.; Ozel, D.; Qiao, Y.; Harbinski, F.; Chen, L.; Denoyelle, S.; He, X.; Zvereva, N.; Supko, J. G.; Chorev, M.; Halperin, J. A.; Aktas, B. H. Nat. Chem. Biol. 2011, 7, 610 hereby incorporated by reference.

CRL-2813 = assay: Cell growth assay (sulforhodamine B), CRL-2813 cells; type: cell-based, human; conditions: Homo sapiens, CRL2813, 120 h, 5 days, SRB
Description: (§1) Adherent mouse (KLN) and human solid tumor cells (CRL-2351, and CRL-2813) were plated in 96-well plates and maintained for 5 days in the presence of 0.54 to 6 μM of individual compound, and cell proliferation was measured by the sulforhodamine B (SRB) assay as described in ref. 11: briefly, cells were fixed in 10% cold trichloroacetic acid at 4° C. for 1 h, extensively washed with double-distilled H2O and air-dried. Plates were then incubated with 0.4% SRB in 1% acetic acid for 1 h, washed with 1% acetic acid to remove the unbound dye, and air-dried. The bound dye was solubilized by addition of 10 mM Tris (pH 10), and the absorbance was determined in a Titertek Multiscan plate reader at 490 nm. The data calculations were carried out as described (the values for mean±SD of data from replicate wells are calculated): data are expressed in terms of % T/C [(OD of treated cells/OD of control cells)×100], as a measure of cell viability and survival in the presence of test materials. Calculations are also made for the concentration of test agents giving a T/C value of 50%, or 50% growth inhibition (IC50). With the SRB assay, a measure is made of the cell population density at time 0 (the time at which drugs are added) from two extra reference plates of inoculated cells fixed with TCA just prior to drug addition to the test plates. Thus, we have three measurements: control optical density (C), test optical density (T), and optical density at time zero (T0). The calculation is 100×[(T−T0)/(C−T0)]. If T is less than T0, cell killing has occurred and can be calculated from 100×[(T−T0)/T0]. Thus, for each drug-cell line combination, a dose-response curve is generated and three levels of effect are calculated.

CRL-2351 = assay: Cell growth assay (sulforhodamine B), CRL-2351 cells; type: cell-based, human; conditions: Homo sapiens, 120 h, 5 days, SRB
Description: as §1

Row | Compound | IC50 (KLN) | maximal fold induction at 80 µM [1] | IC50 (CRL-2813) | IC50 (CRL-2351) | maximal fold induction at 20 µM [1] | maximal fold induction at 40 µM [1] | maximal fold induction at 10 µM [1]
1 | CC(C)(C)c1ccc(OCC(=O)O)c(C2(c3ccccc3)C(=O)Nc3ccccc32)c1 (stereo not drawn) [Sd177] | > 20 µM | 1.65 ± 0.04 | > 20 µM | > 20 µM | – | – | –
2 | CCN(C)CCOc1ccc(C(C)(C)C)cc1C1(c2cc(C(C)(C)C)ccc2O)C(=O)Nc2ccccc21 (stereo not drawn) [HY301] | 4.6 ± 1.2 µM | – | 1.5 ± 0.7 µM | 0.9 ± 0.2 µM | 15.1 ± 1.04 | – | –
3 | COc1ccc(C(C)C)cc1C1(c2cc(C(C)C)ccc2O)C(=O)Nc2ccccc21 (stereo not drawn) [HY161] | > 20 µM | – | 1.4 ± 0.09 µM | 7.2 ± 3 µM | – | 3.91 ± 0.65 | –
4 | CC(=O)OCCOc1ccc(C(C)(C)C)cc1C1(c2cc(C(C)(C)C)ccc2OCCOC(C)=O)C(=O)Nc2ccccc21 [HY184] | > 20 µM | 2.07 ± 1.6 | 2 µM | 2 µM | – | – | –
5 | COc1ccc(C2(c3cc(C(C)(C)C)ccc3OCCN3CCOCC3)C(=O)Nc3ccccc32)cc1 (stereo not drawn) [Sd139, 3-{5-tert-butyl-2-[2-(morpholin-4-yl)ethoxy]phenyl}-3-(4-methoxyphenyl)-indol-2-one] | 4.3 ± 1 µM | – | 2.4 ± 0.9 µM | 2.65 ± 1.5 µM | – | 6.3 ± 0.3 | –
6 | COc1ccc(C2(c3cc(C(C)(C)C)ccc3OCCN3CCOCC3)C(=O)Nc3ccc(OC)cc32)cc1 (stereo not drawn) [Sd185, 3-{5-tert-butyl-2-[2-(morpholin-4-yl)ethoxy]phenyl}-5-methoxy-3-(4-methoxyphenyl)-indol-2-one] | 2.75 ± 0.3 µM | – | 2.9 ± 0.3 µM | 4.5 ± 0.7 µM | – | 3.92 ± 0.16 | –
7 | CN(C)c1ccc(C2(c3cc(C(C)(C)C)ccc3OCCN3CCOCC3)C(=O)Nc3c2ccc(F)c3F)cc1 (stereo not drawn) [Sd163] | 15.7 ± 1.9 µM | 5.1 ± 0.1 | 11 ± 1.3 µM | 4 ± 1 µM | – | – | –
8 | CC(C)(C)c1ccc(O)c(C2(c3cc(C(C)(C)C)ccc3O)C(=O)Nc3c2ccc(F)c3F)c1 [HY036, 3,3-Bis(5-tert-Butyl-2-Hydroxyphenyl)-6,7-Difluoroindolin-2-One] | 11.2 ± 3.2 µM | – | 2.7 ± 0.1 µM | 2.4 ± 0.6 µM | – | 4.45 ± 1.07 | –
9 | CN1CCN(CCOc2ccc(C(C)(C)C)cc2C2(c3cc(C(C)(C)C)ccc3OCCN3CCN(C)CC3)C(=O)Nc3ccccc32)CC1 [HY413] | 0.85 ± 0.02 µM | – | 0.74 ± 0.01 µM | 0.2 ± 0.08 µM | – | – | 9.7 ± 3.8
10 | CCCN1C(=O)C(c2cc(C(C)(C)C)ccc2O)(c2cc(C(C)(C)C)ccc2OCCN2CCCC2)c2ccccc21 (stereo not drawn) [HY098] | 0.5 ± 0.2 µM | – | 0.9 ± 0.2 µM | 0.3 ± 0.1 µM | – | – | 8.7 ± 1.2
11 | COc1ccc(C2(c3cc(C(C)(C)C)ccc3O)C(=O)Nc3ccccc32)cc1 (stereo not drawn) [Sd086] | 15.7 ± 1.1 µM | – | 2.75 ± 0.1 µM | 2.65 ± 0.1 µM | – | 5.6 ± 0.5 | –
12 | CC(C)(C)c1ccc(O)c(C2(c3cc(C(C)(C)C)ccc3OCCN3CCCC3)C(=O)Nc3ccccc32)c1 (stereo not drawn) [HY091] | 1.4 ± 0.4 µM | – | 10.7 ± 0.8 µM | 1 µM | 5.3 ± 0.7 | – | 2.73 ± 0.65
13 | CC(C)(C)c1ccc(O)c(C2(c3cccnc3)C(=O)Nc3ccccc32)c1 (stereo not drawn) [HY003, 3-(5-tert-Butyl-2-Hydroxyphenyl)-3-(Pyridin-3-yl)Indolin-2-One] | > 20 µM | 1.67 | 11.5 ± 1.8 µM | 6.4 ± 3 µM | – | – | –
14 | COc1ccc(OC)c(C2(c3cc(O)ccc3OC)C(=O)Nc3ccccc32)c1 (stereo not drawn) [HY055] | 15.6 ± 0.4 µM | 1.2 ± 0.6 | 9.7 ± 2 µM | 9 µM | – | – | –
15 | COc1ccc(C2(c3cc(OC(C)C)ccc3OCCN3CCOCC3)C(=O)Nc3ccccc32)cc1 (stereo not drawn) [Sd179, 3-(4-Methoxyphenyl)-3-{2-[2-(morpholin-4-yl)ethoxy]-5-(propan-2-yloxy)phenyl}-indol-2-one] | 11.8 ± 1 µM | 2.6 ± 0.14 | 13.4 ± 0.7 µM | 8.6 ± 1 µM | – | – | –
16 | CC(C)(C)c1ccc(O)c(C2(c3ccccc3)C(=O)Nc3ccc(OC(F)(F)F)cc32)c1 (stereo not drawn) [Sd224] | 8 µM | – | 1 µM | 2.5 ± 0.9 µM | – | 2.56 ± 0.3 | –
17 | CN1CCN(CCOc2ccc(C(C)(C)C)cc2C2(c3cc(C(C)(C)C)ccc3O)C(=O)Nc3ccccc32)CC1 (stereo not drawn) [HY080] | 2.9 ± 0.8 µM | – | 1.4 ± 0.5 µM | 0.75 ± 0.1 µM | 24.6 ± 3.37 | – | –
18 | CC(C)c1ccc(O)c(C2(c3cc(C(C)C)ccc3O)C(=O)Nc3ccccc32)c1 [HY050, 3,3-Bis(2-Hydroxy-5-Isopropylphenyl)Indolin-2-One] | 15.2 ± 2 µM | – | 2.9 ± 0.3 µM | 2.6 ± 0.5 µM | 3.34 ± 0.07 | – | –
19 | CC(C)(C)c1ccc(O)c(C2(c3ccccc3)C(=O)Nc3ccc(-c4ccc(N5CCOCC5)nc4)cc32)c1 (stereo not drawn) [Sd231] | 13.3 ± 2.4 µM | 15.6 ± 0.4 | 2.5 ± 1.5 µM | 1.8 ± 0.4 µM | – | – | –
20 | CN(C)CCOc1ccc(C(C)(C)C)cc1C1(c2cc(C(C)(C)C)ccc2O)C(=O)Nc2ccccc21 (stereo not drawn) [HY077] | 1.7 ± 0.9 µM | – | 1.2 ± 0.4 µM | 1.9 ± 1 µM | 4.65 ± 0.88 | – | –
21 | CCCCc1ccc(O)c(C2(c3ccccc3)C(=O)Nc3ccccc32)c1 (stereo not drawn) [Compound 1287, reference compound] | > 20 µM | – | 2.8 ± 0.3 µM | 3.5 ± 0.1 µM | – | – | –
22 | CC(C)(C)c1ccc(OCCN2CCOCC2)c(C2(c3cc(C(C)(C)C)ccc3OCCN3CCOCC3)C(=O)Nc3ccccc32)c1 [SD167] | > 20 µM | – | 2.4 ± 0.1 µM | 1.68 ± 1.26 µM | – | – | –
23 | CC(C)(C)c1ccc(OCCOC2OC(CO)C(O)C(O)C2O)c(C2(c3cc(C(C)(C)C)ccc3OCCOC3OC(CO)C(O)C(O)C3O)C(=O)Nc3ccccc32)c1 (stereo not drawn) [HY190] | > 20 µM | – | > 20 µM | > 20 µM | – | – | –
